Legend:
[1] = system: dopamine-beta-hydroxylase (DBH); assay: time-dependent DBH inhibitory activity in vitro (oxygen uptake, tyramine substrate); type: biochemical; details: Concentration 5 × 10^-5 M, preferably pH 5.0, 37° C.
Description: The DBH inhibitory properties of the compounds of this invention can readily be determined by standard and well-known procedures. […] The test compound is added at the desired concentration, and the system is incubated. At different time internals, aliquots are taken and DBH activity is measured using tyramine as the substrate. The reaction is followed by measuring oxygen uptake using a polarographic electrode and an oxygen monitor by the method of S. May et al., J. Bio. Chem. 256, 2258 (1981).

[2] = system: spontaneously hypertensive rats; assay: lowering of mean blood pressure in conscious spontaneously hypertensive rats (Table II, DBH inhibitory activity in vivo); details: 30 mg/kg (ip), unanesthetized spontaneously hypertensive rats
Description: The ability of the compounds of this invention to lower blood pressure can be determined in vivo using standard and well-known procedures such as those employed for the continuous recording of arterial blood pressure in conscious animals. For instance, test compounds are administered intraperitoneally (ip) to unanesthetized spontaneously hypertensive rats and the arterial blood pressure is monitored continuously. In tests utilizing the above procedure, the antihypertensive effect of the test compound is readily apparent as indicated by the degree of lowering of mean blood pressure (MBP) noted in Table II.

NCC#Cc1cccs1 [3-(2-thienyl)-2-propyn-1-amine]
t 1/2: time required for 50% log activity remaining [1]: 9.2 min. | Duration [2]: 14 h | Max Change MBP +/St. dev. [2]: -20+/-8 mm Hg

— US4743617A, “Heterocyclyl-2-propyn-1-amines” (Merrell Dow Pharmaceuticals Inc., priority 1987, dated 1988)
